Measured values reported in US20260070945A1, “MACROCYCLIC IMMUNOMODULATORS” (Bristol-Myers Squibb Company, priority 2022, published 2026).
pIC50: −log10 of the molar value. *1 amine or outer side, *2 acyl side, *3 side chain or, on linkers, in order; H or OH if unused. Where a SMILES comes first, the peptide text is derived from it. Bridges are numbered along the chain shown (N, C = ends). [ ]: non-standard residue; d: D form. The star is where a group is joined. ξ: configuration not given here. Phe(4-COOH) = N[C@@H](Cc1ccc(C(=O)O)cc1)C(=O)O; Bip = N[C@@H](Cc1ccc(-c2ccccc2)cc1)C(=O)O; NH(CH2)14COOH = O=C(O)CCCCCCCCCCCCCCN*; Phe(3-Me) = Cc1cccc(C[C@H](N)C(=O)O)c1; γGlu = O=C(O)[C@H](CCC(=O)[*:2])N[*:1]; βAsp = O=C(O)[C@H](CC(=O)[*:2])N[*:1]; NH(CH2)12COOH = O=C(O)CCCCCCCCCCCCN*; aIle = CC[C@@H](C)[C@H](N)C(=O)O; hArg = N=C(N)NCCCC[C@H](N)C(=O)O; 4Pal = N[C@@H](Cc1ccncc1)C(=O)O; Cha = N[C@@H](CC1CCCCC1)C(=O)O; Ile(3ξ) = CCC(C)[C@H](N)C(=O)O; Thr(3ξ) = CC(O)[C@H](N)C(=O)O; 12Ado = NCCCCCCCCCCCC(=O)O; Carboxymethyl = O=C(O)C*; NMeA = CN[C@@H](C)C(=O)O; Nle = CCCC[C@H](N)C(=O)O; Orn = NCCC[C@H](N)C(=O)O; dDap = NC[C@@H](N)C(=O)O; Aun = NCCCCCCCCCCC(=O)O; Dab = NCC[C@H](N)C(=O)O; AEEA = NCCOCCOCC(=O)O

Molecular target: T1, PD-1/PD-L1 interaction (PE-labeled human PD-L1-Ig binding to Jurkat cell line over-expressing human PD-1) (Homo sapiens, UniProt Q15116)
T1 construct: expressed in transfected cells; host or cells: Jurkat
Assay: Jurkat-PD-1 Cell Binding High-Content Screening Assay (CBA)
Details: Jurkat-hPD-1 cells, PE-labeled PD-L1-Ig 20 nM final; read-out: Jurkat HPD1 PDL1 IC50
How it was run: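 Binding of 20 nM (final) PE-tagged PD-L1-Ig to compound-pretreated Jurkat-hPD-1 cells was measured by high-content imaging after 1 h. Pretreatment ran 2 h at 37 °C in DMEM with 10% fetal calf serum.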

T1 sequence (Q15116 25-288): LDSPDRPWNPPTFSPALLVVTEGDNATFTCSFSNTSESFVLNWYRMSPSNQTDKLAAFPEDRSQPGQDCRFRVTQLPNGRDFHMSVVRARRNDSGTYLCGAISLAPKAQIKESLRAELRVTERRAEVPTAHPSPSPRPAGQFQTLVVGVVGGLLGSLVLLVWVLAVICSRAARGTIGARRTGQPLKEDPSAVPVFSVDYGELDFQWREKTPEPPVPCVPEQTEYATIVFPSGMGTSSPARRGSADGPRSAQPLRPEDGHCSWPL

| pIC50 | Compound |
| --- | --- |
| 6.54 | CC(C)C[C@@H]1NC(=O)[C@H](Cc2c[nH]c3ccccc23)NC(=O)[C@H](CC(=O)O)NC(=O)[C@H](Cc2ccc(OCC(=O)O)cc2)NC(=O)[C@H](CCCCNC(=N)N)NC(=O)CSC[C@@H](C(=O)N[C@@H](C)C(=O)N[C@@H](CCCCN)C(=O)NCCCCCCCCCCCCCCC(=O)O)NC(=O)[C@H](CO)NC(=O)[C@H](C(C)C)NC(=O)[C@H](CC(C)C)NC(=O)[C@H](Cc2c[nH]cn2)NC(=O)[C@@H](CC(C)C)NC(=O)[C@H](C)N(C)C(=O)[C@H](C(C)C)NC(=O)[C@H](Cc2ccc(-c3ccccc3)cc2)NC1=O [Example 2003] ({CH2CO}-[hArg]Y(Carboxymethyl)DWL[Bip]V[NMeA][dL]HLVSCAK-{NH(CH2)14COOH}; thioether N-14) |
| 6.74 | CC(C)C[C@H]1NC(=O)[C@H](C)N(C)C(=O)[C@H](C(C)C)NC(=O)[C@H](Cc2ccc(-c3ccccc3)cc2)NC(=O)[C@H](C(C)C)NC(=O)[C@H](Cc2c[nH]c3ccccc23)NC(=O)[C@H](CC(=O)O)NC(=O)[C@H](Cc2ccc(C(=O)O)cc2)NC(=O)[C@H](Cc2ccncc2)NC(=O)CSC[C@@H](C(=O)N[C@@H](CCN)C(=O)NCCCCCCCCCCCCCCC(=O)O)NC(=O)[C@H](CO)NC(=O)[C@H](C(C)C)NC(=O)[C@H](CC2CCCCC2)NC(=O)[C@H](CCN)NC1=O [Example 2004] ({CH2CO}-[4Pal][Phe(4-COOH)]DWV[Bip]V[NMeA][dL][Dab][Cha]VSC[Dab]-{NH(CH2)14COOH}; thioether N-14) |
| 6.65 | CC(C)C[C@@H]1NC(=O)[C@H](Cc2c[nH]c3ccccc23)NC(=O)[C@H](CC(=O)O)NC(=O)[C@H](Cc2ccc(C(=O)O)cc2)NC(=O)[C@H](C(C)O)NC(=O)CSC[C@@H](C(=O)N[C@@H](C)C(=O)N[C@@H](CCN)C(=O)NCCCCCCCCCCCCCCC(=O)O)NC(=O)[C@H](CO)NC(=O)[C@H](C(C)C)NC(=O)[C@H](CC2CCCCC2)NC(=O)[C@H](CCN)NC(=O)[C@@H](CC(C)C)NC(=O)[C@H](C)N(C)C(=O)[C@H](C(C)C)NC(=O)[C@H](Cc2ccc(-c3ccccc3)cc2)NC1=O (stereo partly drawn) [Example 2005] ({CH2CO}-[Thr(3ξ)][Phe(4-COOH)]DWL[Bip]V[NMeA][dL][Dab][Cha]VSCA[Dab]-{NH(CH2)14COOH}; thioether N-14) |
| 7.23 | CCC(C)[C@@H]1NC(=O)[C@H](Cc2ccc(-c3ccccc3)cc2)NC(=O)[C@H](C(C)C)NC(=O)[C@H](Cc2c[nH]c3ccccc23)NC(=O)[C@H](CC(=O)O)NC(=O)[C@H](Cc2ccc(OCC(=O)O)cc2)NC(=O)[C@H](C(C)O)NC(=O)CSC[C@@H](C(=O)N[C@@H](C)C(=O)NCCOCCOCC(=O)N[C@@H](CCC(=O)NCCOCCOCC(=O)N[C@@H](CCC(=O)NCCOCCOCC(=O)N[C@@H](CCCCN)C(=O)NCCCCCCCCCCCCC(=O)O)C(=O)O)C(=O)O)NC(=O)[C@H](C(C)O)NC(=O)[C@H](C(C)C)NC(=O)[C@H](CC2CCCCC2)NC(=O)[C@H](CCN)NC(=O)[C@@H](CC(C)C)NC(=O)[C@H](C)N(C)C1=O (stereo partly drawn) [Example 2009] ({CH2CO}-[Thr(3ξ)]Y(Carboxymethyl)DWV[Bip][Ile(3ξ)][NMeA][dL][Dab][Cha]V[Thr(3ξ)]CA[AEEA][γGlu][AEEA][γGlu][AEEA]K-{NH(CH2)12COOH}; thioether N-14) |
| 7.46 | CCC(C)[C@@H]1NC(=O)[C@H](Cc2ccc(-c3ccccc3)cc2)NC(=O)[C@H](C(C)C)NC(=O)[C@H](Cc2c[nH]c3ccccc23)NC(=O)[C@H](CC(=O)O)NC(=O)[C@H](Cc2ccc(OCC(=O)O)cc2)NC(=O)[C@H](C(C)O)NC(=O)CSC[C@@H](C(=O)N[C@@H](C)C(=O)NCCOCCOCC(=O)N[C@@H](CCC(=O)NCCOCCOCC(=O)N[C@@H](CCC(=O)NCCOCCOCC(=O)N[C@@H](CCCN)C(=O)NCCCCCCCCCCCC(=O)O)C(=O)O)C(=O)O)NC(=O)[C@H](C(C)O)NC(=O)[C@H](C(C)C)NC(=O)[C@H](CC2CCCCC2)NC(=O)[C@H](CCN)NC(=O)[C@@H](CC(C)C)NC(=O)[C@H](C)N(C)C1=O (stereo partly drawn) [Example 2010] ({CH2CO}-[Thr(3ξ)]Y(Carboxymethyl)DWV[Bip][Ile(3ξ)][NMeA][dL][Dab][Cha]V[Thr(3ξ)]CA[AEEA][γGlu][AEEA][γGlu][AEEA][Orn][12Ado]-OH; thioether N-14) |
| 7.05 | CCCC[C@@H]1NC(=O)CSC[C@@H](C(=O)N[C@@H](CCN)C(=O)NCCOCCOCC(=O)N[C@@H](CCC(=O)NCCOCCOCC(=O)NCCCCCCCCCCCCC(=O)O)C(=O)O)NC(=O)[C@H](CCC(=O)O)NC(=O)[C@H](C(C)C)NC(=O)[C@H](CC2CCCCC2)NC(=O)[C@H](CCN)NC(=O)[C@@H](CC(C)C)NC(=O)[C@H](C)N(C)C(=O)[C@H](Cc2ccc(OCC(=O)O)cc2)NC(=O)[C@H](Cc2ccc(-c3ccccc3)cc2)NC(=O)[C@H](Cc2ccc(OCC(=O)O)cc2)NC(=O)[C@H](Cc2cccc(C)c2)NC(=O)[C@H](CC(=O)O)NC(=O)[C@H](Cc2ccc(OCC(=O)O)cc2)NC1=O [Example 2011] ({CH2CO}-[Nle]Y(Carboxymethyl)D[Phe(3-Me)]Y(Carboxymethyl)[Bip]Y(Carboxymethyl)[NMeA][dL][Dab][Cha]VEC[Dab][AEEA][γGlu][AEEA]-{NH(CH2)12COOH}; thioether N-14) |
| 7.68 | CC(C)C[C@@H]1NC(=O)[C@H](Cc2c[nH]c3ccccc23)NC(=O)[C@H](CC(=O)O)NC(=O)[C@H](Cc2ccc(OCC(=O)O)cc2)NC(=O)[C@H](CCCCNC(=N)N)NC(=O)CSC[C@@H](C(=O)N[C@@H](CC(N)=O)C(=O)NCCOCCOCC(=O)N[C@@H](CC(=O)NCCCCCCCCCCC(=O)O)C(=O)O)NC(=O)[C@H](CO)NC(=O)[C@H](C(C)C)NC(=O)[C@H](CC(C)C)NC(=O)[C@H](CC(N)=O)NC(=O)[C@@H](CC(C)C)NC(=O)[C@H](C)N(C)C(=O)[C@H](C(C)C)NC(=O)[C@H](Cc2ccc(-c3ccccc3)cc2)NC1=O [Example 2012] ({CH2CO}-[hArg]Y(Carboxymethyl)DWL[Bip]V[NMeA][dL]NLVSCN[AEEA][βAsp][Aun]-OH; thioether N-14) |
| 7.13 | CC[C@@H](C)[C@@H]1NC(=O)[C@H](Cc2ccc(-c3ccccc3)cc2)NC(=O)[C@H](C(C)C)NC(=O)[C@H](Cc2c[nH]c3ccccc23)NC(=O)[C@H](CC(=O)O)NC(=O)[C@H](Cc2ccc(OCC(=O)O)cc2)NC(=O)[C@H](Cc2ccncc2)NC(=O)CSC[C@@H](C(=O)N[C@H](CN)C(=O)NCCOCCOCC(=O)N[C@@H](CCC(=O)NCCOCCOCC(=O)N[C@@H](CCC(=O)NCCOCCOCC(=O)N[C@@H](CCCN)C(=O)NCCCCCCCCCCC(=O)O)C(=O)O)C(=O)O)NC(=O)[C@H](Cc2c[nH]cn2)NC(=O)[C@H](C(C)C)NC(=O)[C@H](CC2CCCCC2)NC(=O)[C@H](CC(N)=O)NC(=O)[C@@H](CC(C)C)NC(=O)[C@H](C)N(C)C1=O [Example 2013] ({CH2CO}-[4Pal]Y(Carboxymethyl)DWV[Bip][aIle][NMeA][dL]N[Cha]VHC[dDap][AEEA][γGlu][AEEA][γGlu][AEEA][Orn][Aun]-OH; thioether N-14) |
